From publication PMC8037310, “Thrombin-Derived Peptides Potentiate the Activity of Gram-Positive-Specific Antibiotics against Gram-Negative Bacteria” (Molecules, 2021)
Where “and” joins values, the source holds several entries; their conditions need not be identical. Equal values may be shown once. Read-outs that look alike come from different tables or passages of the source. Peptide text beside a SMILES is read from it.

Assays:
[1] = tested on: E. coli BW25113; assay: Checkerboard assay with erythromycin; format: cell-based, Escherichia coli; details: for MSCery: erythromycin concentration in the combination with the synergist giving the lowest FICi, E. coli BW25113; for MIC of the peptide (MICpep): synergist alone, from checkerboard with erythromycin; for MIC of the peptide (MICpep) / MSCpeptide, minimum synergistic concentration: E. coli BW25113, LB, 20 h 37 °C; for MSCpeptide, minimum synergistic concentration: synergist concentration in the combination with erythromycin giving the lowest FICi, OD600
[2] = tested on: E. coli ATCC25922; format: cell-based, Escherichia coli; details: for FICi: ATCC25922, 20 h; for MICpeptide: peptide alone; for MICpeptide / MSCpeptide / MSCrif: E. coli ATCC25922; for MSCpeptide: peptide concentration in the combination with rifampicin giving the lowest FICi; for MSCrif: rifampicin concentration in the combination giving the lowest FICi
Method in brief: (§1)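 Checkerboard of peptide serial dilutions against rifampicin concentrations in triplicate, in LB with 1.0 × 10^6 CFU/mL final inoculum after mixing the 2.0 × 10^6 CFU/mL stock 1:1, 20 h at 37 °C shaking. OD600 read; FICi = MSCa/MICa + MSCb/MICb, ≤0.5 taken as synergy.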

[3] = tested on: E. coli BW25113; format: cell-based, Escherichia coli; details: for MICpep: synergist alone, E. coli BW25113, from checkerboard with rifampicin; for MSCpep: synergist concentration in the combination with rifampicin giving the lowest FICi
[4] = tested on: E. coli EQASmcr-1 (EQAS 2016 412016126); format: cell-based, Escherichia coli; details: for MICpeptide: peptide alone; for MICpeptide / MSCpeptide / MSCrif: E. coli EQASmcr-1; for MSCpeptide: peptide concentration in the combination with rifampicin giving the lowest FICi; for MSCrif: rifampicin concentration in the combination giving the lowest FICi
[5] = tested on: E. coli EQASmcr-2 (EQAS 2016 KP37); format: cell-based, Escherichia coli; details: for FICi: EQASmcr-2 (EQAS 2016 KP37, 20 h); for MICpeptide: peptide alone; for MICpeptide / MSCpeptide / MSCrif: E. coli EQASmcr-2; for MSCpeptide: peptide concentration in the combination with rifampicin giving the lowest FICi; for MSCrif: rifampicin concentration in the combination giving the lowest FICi
[6] = tested on: E. coli EQASmcr-3 (EQAS 2017 2013-SQ352); format: cell-based, Escherichia coli; details: for MICpeptide: peptide alone; for MICpeptide / MSCpeptide / MSCrif: E. coli EQASmcr-3; for MSCpeptide: peptide concentration in the combination with rifampicin giving the lowest FICi; for MSCrif: rifampicin concentration in the combination giving the lowest FICi
[7] = tested on: E. coli W3110; format: cell-based, Escherichia coli; details: for MICpeptide: peptide alone; for MICpeptide / MSCpeptide / MSCrif: E. coli W3110; for MSCpeptide: peptide concentration in the combination with rifampicin giving the lowest FICi; for MSCrif: rifampicin concentration in the combination giving the lowest FICi; for FICi: with rifampicin vs E. coli W3110, synergy defined as FICi ≤ 0.5
[8] = tested on: E. coli mcr-1; format: cell-based, Escherichia coli; details: for MICpeptide: peptide alone; for MICpeptide / MSCpeptide / MSCrif: E. coli mcr-1; for MSCpeptide: peptide concentration in the combination with rifampicin giving the lowest FICi; for MSCrif: rifampicin concentration in the combination giving the lowest FICi; for FICi: with rifampicin vs E. coli mcr-1
Method in brief: as §1

[9] = tested on: E. coli BW25113; assay: microbe, parasite or virus in culture; format: cell-based, Escherichia coli; details: for MSCnovo: novobiocin concentration in the combination giving the lowest FICi; for MSCnovo / MSCpeptide: E. coli BW25113; for MICpeptide: synergist alone, E. coli BW25113, from checkerboard with novobiocin; for MSCpeptide: synergist concentration in the combination with novobiocin giving the lowest FICi
Protocol: (§2) All peptides were screened for antimicrobial activity against E. coli BW25113, E. coli ATCC25922, and E. coli W3110. A select group of the peptides was further tested against E. coli mcr-1, E. coli EQASmcr-1 (EQAS 2016 412016126), E. coli EQASmcr-2 (EQAS 2016 KP37), E. coli EQASmcr-3 (EQAS 2017 2013-SQ352), K. pneumoniae ATCC13883, P. aeruginosa ATCC27853, and A. baumannii ATCC17978. The antimicrobial assay was performed according to CLSI guidelines. Bacteria were plated out directly from their glycerol stocks on blood agar plates, incubated overnight at 37 °C, and then kept in the fridge. The blood agar plates were only used for 2 weeks and then replaced.
(§3) One colony from a blood agar plates was inoculated in Lysogeny Broth (LB) at 37 °C until a 0.5 optical density at 600 nm (OD600) was reached (compared to the sterility control of LB). The bacterial suspension was diluted in fresh LB to 2.0 × 10^6 CFU/mL. The serial dilutions were prepared in polypropylene microtiter plates: a stock of the test compounds was prepared with a 2x final concentration in LB. Moreover, 100 µL of the stock was added to the wells of the top row of which 50 µL was used for the serial dilution. The bottom row of each plate was used as the positive (50 µL of LB) and negative controls (100 µL of LB) (6 wells each). Furthermore, 50 µL of the 2.0 × 10^6 CFU/mL bacterial stock was added to each well except for the negative controls, adding up to a total volume of 100 µL per well. The plates were sealed with a breathable seal and incubated for 20 h at 37 °C and 600 rpm.
(§4) Two 96-well plates were required per compound. A serial dilution of the compound was performed on two plates from row A–G using with LB as medium. Row H was filled with 25 µL medium. On a separate plate a negative control (8 wells, 100 μL medium) was prepared. For all concentrations of antibiotic a specific stock was prepared. 25 µL medium was added to the 0 µg/mL antibiotic columns (plate I, column 1–3). Of each antibiotic stock 25 µL was added to three columns to obtain triplicates for every condition. Both plates contained 50 µL in each well to which 50 µL bacterial stock was added (see the protocol of the MIC assays) and the plates were sealed. After incubation for 20 h at 37 °C while shaking, the breathable seals were removed and the density of the bacterial suspensions measured at 600 nm (OD600) using a Tecan Spark plate reader. The OD600 values were transformed to a 2D gradient with the negative control as minimum and the positive control (wells G1, G2, and G3) as maximum in excel. The FICi was calculated using Equation (1) with a FICi ≤ 0.5 indicating synergy. FICi = (MSCa/MICa) + (MSCb/MICb),(1)
(§5) Calculation of the FICi: MSCa = concentration of the […] in combination with the antibiotic that results in the lowest FICi. MICa = MIC of the antibiotic without synergist (row G). MSCb = concentration of the synergist in combination with the antibiotic that results in the lowest FICi. MICb = MIC of the synergist itself (Column 1–3, plate I).

[10] = tested on: E. coli BW25113; assay: microbe, parasite or virus in culture; format: cell-based, Escherichia coli; details: for MICpeptide: synergist alone, E. coli BW25113, from checkerboard with vancomycin; for MSCpeptide: synergist concentration in the combination with vancomycin giving the lowest FICi; for MSCpeptide / MSCvanco: E. coli BW25113; for MSCvanco: vancomycin concentration in the combination giving the lowest FICi
Protocol: as §2, §3, §4, §5

[11] = tested on: K. pneumoniae ATCC13883; assay: Checkerboard assay with rifampicin; format: cell-based, Klebsiella pneumoniae; details: K. pneumoniae ATCC13883; for MICpeptide: peptide alone; for MSCpeptide: peptide concentration in the combination with rifampicin giving the lowest FICi; for MSCrif: rifampicin concentration in the combination giving the lowest FICi
Protocol: as §2, §3, §4, §5

[12] = tested on: P. aeruginosa ATCC27853; assay: Checkerboard assay with rifampicin; format: cell-based, Pseudomonas aeruginosa; details: for MICpeptide: peptide alone; for MICpeptide / MSCpeptide / MSCrif: P. aeruginosa ATCC27853; for MSCpeptide: peptide concentration in the combination with rifampicin giving the lowest FICi; for MSCrif: rifampicin concentration in the combination giving the lowest FICi; for FICi: with rifampicin vs P. aeruginosa ATCC27853, synergy defined as FICi ≤ 0.5
Protocol: as §2, §3, §4, §5

CC[C@H](C)[C@H](NC(=O)[C@@H](NC(=O)[C@H](CCCCN)NC(=O)[C@H](CCC(N)=O)NC(=O)[C@@H](NC(=O)[C@H](Cc1c[nH]c2ccccc12)NC(=O)[C@H](CCCCN)NC(=O)[C@H](CCCCN)NC(=O)[C@H](CC(C)C)NC(=O)[C@H](CCCNC(=N)N)NC(=O)[C@H](Cc1ccccc1)NC(=O)[C@@H](N)C(C)C)[C@@H](C)CC)C(C)C)C(N)=O [peptide 6] (H-VFRLKKWIQKVI-NH2)
MSCery [1]: 12.5 µg/mL
MIC of the peptide (MICpep) [1]: 12.5 µg/mL
MSCpeptide, minimum synergistic concentration [1]: 3.125 µg/mL and 3.13 µg/mL
FICi [2]: 0.0469
MICpeptide [2]: 200 µg/mL
MSCpeptide [2]: 6.25 µg/mL
MSCrif [2]: 0.063 µg/mL
FICi ([3]; BW25113, 20 h): 0.1563
MSCrif ([3]; rifampicin concentration in the combination giving the lowest FICi, E. coli BW25113): 0.25 µg/mL
MICpep [3]: 25 µg/mL
MSCpep ([3]; E. coli BW25113): 3.125 µg/mL
FICi ([4]; EQASmcr-1 (EQAS 2016 412016126, 20 h)): 0.0781
MICpeptide [4]: 100 µg/mL
MSCpeptide [4]: 6.25 µg/mL
MSCrif [4]: 0.125 µg/mL
FICi [5]: 0.0938
MICpeptide [5]: 100 µg/mL
MSCpeptide [5]: 6.25 µg/mL
MSCrif [5]: 0.25 µg/mL
FICi ([6]; EQASmcr-3 (EQAS 2017 2013-SQ352, 20 h)): 0.0781
MICpeptide [6]: 50 µg/mL
MSCpeptide [6]: 3.125 µg/mL
MSCrif [6]: 0.125 µg/mL
MICpeptide [7]: 6.25 µg/mL
MSCpeptide [7]: 3.125 µg/mL
MSCrif [7]: 0.125 µg/mL
FICi [7]: > 0.5
MICpeptide [8]: 100 µg/mL
MSCpeptide [8]: 12.5 µg/mL
MSCrif [8]: 0.188 µg/mL
FICi [8]: 0.1406
FICi ([9]; BW25113, 20 h): 0.1875
MSCnovo [9]: 25 µg/mL
MICpeptide [9]: 12.5 µg/mL
MSCpeptide [9]: 1.563 µg/mL
MICpeptide [10]: 25 µg/mL
MSCpeptide [10]: 3.125 µg/mL
MSCvanco [10]: 25 µg/mL
MICpeptide [11]: 100 µg/mL
MSCpeptide [11]: 3.125 µg/mL
MSCrif [11]: 1 µg/mL
MICpeptide [12]: 50 µg/mL
MSCpeptide [12]: 25 µg/mL
MSCrif [12]: 1 µg/mL
FICi [12]: > 0.5

CC[C@H](C)[C@H](NC(=O)[C@@H](NC(=O)[C@H](CCCCN)NC(=O)[C@H](CCC(N)=O)NC(=O)[C@@H](NC(=O)[C@H](Cc1c[nH]c2ccccc12)NC(=O)[C@H](CCCCN)NC(=O)[C@H](CCCCN)NC(=O)[C@H](CC(C)C)NC(=O)[C@H](C)NC(=O)[C@H](Cc1ccccc1)NC(=O)[C@@H](N)C(C)C)[C@@H](C)CC)C(C)C)C(N)=O [peptide 10] (H-VFALKKWIQKVI-NH2)
MSCery [1]: 3.125 µg/mL
MIC of the peptide (MICpep) [1]: 100 µg/mL
MSCpeptide, minimum synergistic concentration [1]: 12.5 µg/mL
FICi [2]: 0.0313
MICpeptide [2]: > 200 µg/mL
MSCpeptide [2]: 6.25 µg/mL
MSCrif [2]: 0.063 µg/mL
MICpep [3]: 100 µg/mL
MSCpep ([3]; E. coli BW25113): 12.5 µg/mL
MICpeptide [4]: 200 µg/mL
MSCpeptide [4]: 12.5 µg/mL
MSCrif [4]: 0.125 µg/mL
FICi ([4]; with rifampicin vs E. coli EQASmcr-1): 0.0781
FICi [5]: 0.1406
MICpeptide [5]: 100 µg/mL
MSCpeptide [5]: 12.5 µg/mL
MSCrif [5]: 0.125 µg/mL
MICpeptide [6]: 200 µg/mL
MSCpeptide [6]: 12.5 µg/mL
MSCrif [6]: 0.125 µg/mL
FICi ([6]; with rifampicin vs E. coli EQASmcr-3): 0.0781
MICpeptide [7]: 25 µg/mL
MSCpeptide [7]: 12.5 µg/mL
MSCrif [7]: 0.125 µg/mL
FICi [7]: > 0.5
MICpeptide [8]: > 200 µg/mL
MSCpeptide [8]: 25 µg/mL
MSCrif [8]: 0.188 µg/mL
FICi [8]: 0.0781
MSCnovo [9]: 6.25 µg/mL
MICpeptide [9]: 100 µg/mL
MSCpeptide [9]: 6.25 µg/mL
FICi ([9]; with novobiocin vs E. coli BW25113): 0.0781
FICi ([10]; BW25113, 20 h): 0.1563
MICpeptide [10]: 100 µg/mL
MSCpeptide [10]: 12.5 µg/mL
MSCvanco [10]: 12.5 µg/mL
MICpeptide [11]: > 200 µg/mL
MSCpeptide [11]: 12.5 µg/mL
MSCrif [11]: 1 µg/mL
MICpeptide [12]: > 200 µg/mL
MSCpeptide [12]: 100 µg/mL
MSCrif [12]: 4 µg/mL
FICi [12]: 0.2500
